Experimental data taken from patent US5670520A, “Method for inhibiting virus replication in mammalian cells using carbostyil derivatives” (Otsuka Pharmaceutical Co., Ltd., priority 1996, dated 1997).

Legend:
E. coli DNA polymerase I = target: T1, E. coli DNA polymerase I (Escherichia coli, UniProt P00582); assay: In vitro DNA polymerase assay; format: biochemical; conditions: vesnarinone up to 100 μg/ml
T1 construct: purchased Boehringer Mannheim

[1] = test system: PHA-activated human T lymphocytes; assay: Accumulation of phosphorylated [3H]thymidine / [3H]AZT in PHA-activated human T lymphocytes; format: cell-based; conditions: 0, 75 or 250 μM vesnarinone; 0-120 min
Source text: Similar results were obtained when using U937 cells, in place of the PHA-activated human T lymphocytes.

[2] = cited from earlier work
human T cells [3] = assay: Cell numbers of PHA-stimulated human T cells over 120 hrs; format: cell-based; conditions: 10 μg/ml PHA, 0-120 hrs; 250 μM vesnarinone, 15 nM aphidicolin or 100 μM deferoxamine
Procedure: Next, the effects of the above-described drugs on cell proliferation were evaluated over a period of 120 hrs.

U937 cells [4] = assay: [3H]thymidine uptake in U937 cells within 1 min; format: cell-based, human; conditions: 0-250 μM vesnarinone or 0-1000 nM dipyridamole
Procedure: Dipyridamole was prepared as a 50 mM stock solution dissolved in ethanol.

[5] = test system: primary human T lymphocytes; assay: Rapid uptake of [3H]thymidine / [3H]AZT in PHA-activated human T cells; conditions: 0-250 μM vesnarinone, 1 min
Procedure: Human PBMC were obtained by leukopheresis of HIV-1 and HBV Zeronegative healthy donors. Mononuclear cell suspensions were prepared therefrom by Ficoll-Hypaque gradient centrifugation, and the T cells were obtained therefrom by E-rosette enrichment as described by Terada et al, J. Immunol., 147:698-704 (1991).
Then, 1.0 μCi/ml of [^3 H]thymidine (6.7 Ci/mmol) or 1.0 μCi/ml of [^3 H]AZT (14 Ci/mmol) was added, and the mixture was immediately layered on silicone oil/paraffin oil (96:6) in microfuge tubes. […] The water and oil phases were discarded, and radioactivity of the cell pellets was measured using liquid scintillation counting.

human T cells [6] = assay: [3H]thymidine incorporation by PHA-stimulated human T cells; format: cell-based; conditions: 10 μg/ml PHA 48 hrs, 0-250 μM vesnarinone, 6 hrs pulse
Procedure: More specifically, human primary T cells were separated from peripheral blood obtained by leukopheresis of healthy donors. Mononuclear cell suspensions were prepared by Ficoll-Hypaque gradient centrifugation, and T cells were obtained by E-rosette enrichment as described by Kumagai et al, J. Cell. Physiol., 137:329 (1988).
Then, 1.0 μCi of [^3 H]thymidine (6.7 Ci/mmole, ICN), was added to 2.0×10^6 cells (100 μl), and the cells were pulse-labeled for 6 hrs.

thymidine kinase [7] = assay: Thymidine kinase activity in extracts of treated Akata cells; format: cell-based; conditions: 100 μg/ml vesnarinone
Procedure: The pellet of frozen cells was suspended in 100 μl of kinase extraction buffer comprising 50 mM Tris (pH 8.0), 50 mM KCl, 1.0 mM MgCl2, 1.0 mM ATP, 1.0 mM DTT, 5.0% (v/v) glycerol, 80 μg/ml aprotinin, 40 μM leupeptin and 1.0 mM PMSF, and incubated on ice for 30 min after a brief sonication. The nuclei were removed by high speed centrifugation for 15 min and the supernatant (kinase extract) was aliquoted and stored at -70° C. The protein concentration of the kinase extract (about 4.0 mg/ml) was determined using standard Bradford Reagent (Bio-Rad Protein Assay Kit, Bio-Rad Laboratories, Hercules, Calif.), with BSA as a protein standard.
5.0 μl of the kinase extract was incubated at 37° C. with 35 µl of kinase reaction buffer comprising 150 mM phosphate (pH 7.5), 20 mM ATP, 20 mM MgCl2, 40 mM KCl, 1.0 mM DTT, 10 mM NaF and 20 μM [^3 H]thymidine (6.7 Ci/mmole, ICN) for 5 or 15 min. The reaction was terminated by placing on ice, and an addition of 4.0 μl of 0.5M EDTA (pH 8.0). […]
The amount of phosphorylated [^3 H]thymidine derivatives formed during the reaction was determined by applying the reaction mixtures onto Whatman DE-81 paper filters, which were then washed four times in 1.0 mM ammoniumformate (pH 8.0), and once in ethanol before drying and liquid scintillation counting. […]

U937 cells [8] = assay: Intracellular phosphorylated AZT in U937 cells (DEAE filter); conditions: 0-250 μM vesnarinone or 0-100 nM dipyridamole; 2 hr
ZEBRA = assay: Flow cytometric detection of ZEBRA in Akata cells; format: cell-based, Epstein-Barr virus; conditions: 3 hrs after anti-IgG; vesnarinone 0-100 μg/ml
Procedure: The human Burkitt's lymphoma cell line, Akata, provided by Dr. Kenzo Takada (Takada, Int. J. Cancer, 33:27-32 (1984); and Takada et al, Virus Genes, 5:147-156 (1991)), was cultured at 37° C. in RPMI 1640 medium supplemented with 15% (v/v) heat-inactivated FCS, and 20 μg/ml gentamicin.
The cell progression of Akata cells was arrested by culturing of the cells for 96 hrs in the presence of 1.5% (y/v) DMSO (Sigma, St. Louis, Mo.) (Sawai et al, Exp. Cell Res., 187:4-10 (1990); and Takase et al, Cell Growth Differ., 3:515-521 (1992)).
1 hr after transfer (release from DMSO), a goat F(ab')2 fragment of anti-human IgG antibody (Organon Teknika, Durham, N.C.) was added at a concentration of 50 μg/ml to induce productive EBV replication (Takagi et al, Virology, 185:309-315 (1991)). […]
For flow cytometric detection of ZEBRA, after a 60 min fixation with 70% (v/v) ethanol at 4° C., 10^6 cells were centrifuged, and washed with PBS. […] The cells were washed with PBS again, and analyzed by flow cytometry (Epics Profile, Coulter), monitoring fluorescence (520-540 nm) in a logarithmic scale with 488 nm excitation. The positivity for ZEBRA was calculated by a non-linear least squares method (Takase et al, J. Immunol. Methods, 118:129-138 (1989)).

MRC5 cells = assay: Microscopic evaluation of cytotoxicity in MRC5 cells; format: cell-based; conditions: vesnarinone up to 31 μg/ml, alone or with DHPG
thymidine kinase [9] = assay: Thymidine kinase assay, vesnarinone added in vitro; format: biochemical; conditions: vesnarinone up to 100 μg/ml
Procedure: 5.0 μl of the kinase extract was incubated at 37° C. with 35 µl of kinase reaction buffer comprising 150 mM phosphate (pH 7.5), 20 mM ATP, 20 mM MgCl2, 40 mM KCl, 1.0 mM DTT, 10 mM NaF and 20 μM [^3 H]thymidine (6.7 Ci/mmole, ICN) for 5 or 15 min. The reaction was terminated by placing on ice, and an addition of 4.0 μl of 0.5M EDTA (pH 8.0). For measurement of dTTP-resistant thymidine kinase activity, a kinase reaction buffer additionally containing 100 μM dTTP (Pharmacia) was used.
The amount of phosphorylated [^3 H]thymidine derivatives formed during the reaction was determined by applying the reaction mixtures onto Whatman DE-81 paper filters, which were then washed four times in 1.0 mM ammoniumformate (pH 8.0), and once in ethanol before drying and liquid scintillation counting.

T1 sequence (P00582 whole entry): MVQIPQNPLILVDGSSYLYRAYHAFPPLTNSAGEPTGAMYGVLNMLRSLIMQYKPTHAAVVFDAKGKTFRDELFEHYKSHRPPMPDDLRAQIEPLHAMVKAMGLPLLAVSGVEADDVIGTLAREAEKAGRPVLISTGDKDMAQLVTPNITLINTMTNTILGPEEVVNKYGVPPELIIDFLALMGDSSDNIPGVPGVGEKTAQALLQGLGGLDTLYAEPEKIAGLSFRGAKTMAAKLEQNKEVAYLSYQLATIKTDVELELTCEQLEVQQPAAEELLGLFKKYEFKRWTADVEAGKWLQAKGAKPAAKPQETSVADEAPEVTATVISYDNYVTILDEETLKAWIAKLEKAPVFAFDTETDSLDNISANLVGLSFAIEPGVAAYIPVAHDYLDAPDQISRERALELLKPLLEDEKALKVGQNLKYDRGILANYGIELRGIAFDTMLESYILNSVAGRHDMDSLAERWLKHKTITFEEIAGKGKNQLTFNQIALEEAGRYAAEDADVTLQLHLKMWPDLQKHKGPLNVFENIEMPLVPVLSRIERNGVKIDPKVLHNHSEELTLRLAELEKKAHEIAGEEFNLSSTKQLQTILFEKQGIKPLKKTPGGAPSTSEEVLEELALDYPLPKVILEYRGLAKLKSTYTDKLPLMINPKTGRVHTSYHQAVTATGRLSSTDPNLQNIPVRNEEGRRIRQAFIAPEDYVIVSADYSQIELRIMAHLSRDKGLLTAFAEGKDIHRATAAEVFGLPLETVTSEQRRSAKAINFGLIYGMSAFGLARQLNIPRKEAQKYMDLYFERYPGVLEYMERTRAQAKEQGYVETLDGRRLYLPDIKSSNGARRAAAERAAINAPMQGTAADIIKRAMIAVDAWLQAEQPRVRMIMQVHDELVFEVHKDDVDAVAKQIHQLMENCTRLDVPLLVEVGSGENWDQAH

Compound: COc1ccc(C(=O)N2CCN(c3ccc4c(c3)CCC(=O)N4)CC2)cc1OC [vesnarinone, 3,4-dihydro-6-[4-(3,4-dimethoxybenzoyl)-1-piperazinyl]-2(1H)-quinoline]
- effect on in vitro DNA polymerase assay (E. coli DNA polymerase I): has no effect on the measurement of dNTP contents in this in vitro DNA polymerase assay
- accumulation of phosphorylated AZT [1]: augmented the accumulation of phosphorylated AZT
- accumulation of phosphorylated [3H]thymidine [1]: delayed the accumulation of phosphorylated [^3 H]thymidine
- therapeutic range in vivo [2]: 2 to 80 µM
- cell proliferation (cell number) (human T cells [3]): inhibited cell proliferation when compared to control cultures, but increases in cell number were nonetheless observed
- uptake of thymidine (U937 cells [4]): inhibited the uptake of thymidine in a dose-dependent manner
- uptake of [3H]AZT [5]: the uptake of [^3 H]AZT was not affected by vesnarinone
- uptake of [3H]thymidine [5]: inhibits the uptake of [^3 H]thymidine in a dose-dependent manner
- [3H]thymidine incorporation into DNA (human T cells [6]): inhibits [^3 H]thymidine incorporation into DNA in a dose-dependent manner
- increase in dTTP-resistant thymidine kinase (thymidine kinase [7]; 100 μM dTTP in reaction): partially suppressed by vesnarinone treatment
- increase in whole thymidine kinase activity in anti-IgG treated cells (thymidine kinase [7]; without dTTP): partially inhibited in the presence of vesnarinone
- intracellular concentration of phosphorylated AZT (U937 cells [8]): increased the concentration of phosphorylated AZT in U937 cells in a dose-dependent manner
- degree of positivity for ZEBRA (ZEBRA): not decreased by vesnarinone at concentrations less than or equal to 10 μg/ml
- cytotoxicity by microscopic evaluation (MRC5 cells): No cytotoxicity was observed
- thymidine kinase activity, drug added to in vitro assay (thymidine kinase [9]): did not display any inhibition of the thymidine kinase activity
